# Reference: US8722731B2, “Furanyl compounds and the use thereof” (NovoMedix, LLC, priority 2010, dated 2014)
# Experiments:
# Hep-G2 = assay: IC50 cell-based assay, adherent cells, Hep-G2; conditions: Homo sapiens, HepG2, Liver, hepatocellular carcinoma, 72 hours, read-out: IC50 of Compounds in Adherent Cell Types
# Procedure: (§1) In one embodiment, the IC50s of the compounds provided herein were determined in cell-based assays using adherent cells. In one embodiment, the activity of the compounds provided herein were determined in a cell-based assay using the triple negative breast cancer cell line MDA-MB-468. In one embodiment, the adherent cells used in the cell-based assays may be a cell type selected from Table 1. In one embodiment, the cell-based assay may be carried out as provided herein. On day 0, cells were seeded at 20,000 cells per well in 100 µL of media into individual wells of a 96-well tissue culture plate. The next day, compounds were diluted to twice the desired final concentration and added in 100 µL of media for a final volume of 200 μL. Standard solutions for each compound were prepared at 1000× concentration in DMSO. The highest concentration was 30 mM. Serial 1:1 dilutions were made from there for a 6- or 9-point curve (e.g., 30 mM, 15 mM, 7.5 mM, etc). Compounds were then diluted 1:500 in media, and 100 µL of the resulting solution was added to each well for a final dilution of 1:1000. Each concentration of compound was tested in triplicate. Cells were incubated at 37° C. with 5% CO2. After 72 hours, 20 μL of CellTiter 96 Aqueous One Solution Cell Proliferation Assay (Promega) was added to each well. Cells were placed back in the incubator, and the absorbance at 490 nm was read after 2-3 hours. The concentration of compound that decreased the number of metabolically active cells by 50% was determined and reported as the IC50. “Percent Viability” was determined by subtracting the average background value (media only) and expressed as a ratio to the average value obtained from cells treated with only DMSO.
# Caki-1 = assay: IC50 cell-based assay, adherent cells, Caki-1; conditions: Homo sapiens, Kidney, clear cell carc., skin met, 72 hours, read-out: IC50 of Compounds in Adherent Cell Types
# Procedure: as §1
# MDA-MB-435 = assay: IC50 cell-based assay, adherent cells, MDA-MB-435; conditions: Homo sapiens, Breast, carcinoma—ductal, 72 hours, read-out: IC50 of Compounds in Adherent Cell Types
# Procedure: (§2) In one embodiment, the IC50s of the compounds provided herein were determined in cell-based assays using adherent cells. In one embodiment, the activity of the compounds provided herein were determined in a cell-based assay using the triple negative breast cancer cell line MDA-MB-468. In one embodiment, the adherent cells used in the cell-based assays may be a cell type selected from Table 1. In one embodiment, the cell-based assay may be carried out as provided herein. On day 0, cells were seeded at 20,000 cells per well in 100 µL of media into individual wells of a 96-well tissue culture plate. The next day, compounds were diluted to twice the desired final concentration and added in 100 µL of media for a final volume of 200 μL. Standard solutions for each compound were prepared at 1000× concentration in DMSO. The highest concentration was 30 mM. Serial 1:1 dilutions were made from there for a 6- or 9-point curve (e.g., 30 mM, 15 mM, 7.5 mM, etc). Compounds were then diluted 1:500 in media, and 100 µL of the resulting solution was added to each well for a final dilution of 1:1000. […] Cells were placed back in the incubator, and the absorbance at 490 nm was read after 2-3 hours. […] “Percent Viability” was determined by subtracting the average background value (media only) and expressed as a ratio to the average value obtained from cells treated with only DMSO.
# SEMK = assay: IC50 cell-based assay, suspension cells, SEMK; conditions: Leukemia, read-out: IC50 of Compounds in Suspension Cell Types
# Procedure: (§3) In one embodiment, the IC50s of the compounds provided herein were determined in cell-based assays using adherent cells. In one embodiment, the activity of the compounds provided herein were determined in a cell-based assay using the triple negative breast cancer cell line MDA-MB-468. In one embodiment, the adherent cells used in the cell-based assays may be a cell type selected from Table 1. In one embodiment, the cell-based assay may be carried out as provided herein. On day 0, cells were seeded at 20,000 cells per well in 100 µL of media into individual wells of a 96-well tissue culture plate. The next day, compounds were diluted to twice the desired final concentration and added in 100 µL of media for a final volume of 200 μL. […] Cells were placed back in the incubator, and the absorbance at 490 nm was read after 2-3 hours. […] “Percent Viability” was determined by subtracting the average background value (media only) and expressed as a ratio to the average value obtained from cells treated with only DMSO.
# (§4) In one embodiment, the IC50s of the compounds provided herein were determined in cell-based assays using suspension cells. In one embodiment, the activity of the compounds provided herein were determined in a cell-based assay using the JeKo-1 cell line (mantle cell lymphoma) or the Pfeiffer cell line (diffuse large B-cell lymphoma). […]
# Mia PaCa-2 = assay: IC50 cell-based assay, adherent cells, Mia PaCa-2; conditions: Homo sapiens, Pancreas, carcinoma, 72 hours, read-out: IC50 of Compounds in Adherent Cell Types
# Procedure: as §2
# MS1 = assay: IC50 cell-based assay, adherent cells, MS1; conditions: Mus musculus, MS-1, Pancreas, angiosarcoma, 72 hours, read-out: IC50 of Compounds in Adherent Cell Types
# Procedure: as §2
# Du145 = assay: IC50 cell-based assay, adherent cells, Du145; conditions: Homo sapiens, DU-145, Prostate, carcinoma, 72 hours, read-out: IC50 of Compounds in Adherent Cell Types
# Procedure: as §2
# XPA-1 = assay: IC50 cell-based assay, adherent cells, XPA-1; conditions: Pancreas, 72 hours, read-out: IC50 of Compounds in Adherent Cell Types
# Procedure: as §2
# HEK-293 = assay: IC50 cell-based assay, adherent cells, HEK-293; conditions: Homo sapiens, HEK293, Kidney, embryonic, 72 hours, read-out: IC50 of Compounds in Adherent Cell Types
# Procedure: as §2
# Molt-4 = assay: IC50 cell-based assay, suspension cells, Molt-4; conditions: Homo sapiens, Leukemia, ALL, read-out: IC50 of Compounds in Suspension Cell Types
# Procedure: as §3, §4
# MDA-MB-415 = assay: IC50 cell-based assay, adherent cells, MDA-MB-415; conditions: Homo sapiens, Breast, adenocarcinoma, 72 hours, read-out: IC50 of Compounds in Adherent Cell Types
# Procedure: as §2
# K562 = assay: IC50 cell-based assay, suspension cells, K562; conditions: Homo sapiens, Leukemia, CML, read-out: IC50 of Compounds in Suspension Cell Types
# Procedure: as §3, §4
# BxPc-3 = assay: IC50 cell-based assay, adherent cells, BxPc-3; conditions: Homo sapiens, Pancreas, adenocarcinoma, 72 hours, read-out: IC50 of Compounds in Adherent Cell Types
# Procedure: as §2
SMILES,IC50 (Hep-G2) [µM],IC50 (Caki-1) [µM],IC50 (MDA-MB-435) [µM],IC50 (SEMK) [µM],IC50 (Mia PaCa-2) [µM],IC50 (MS1) [µM],IC50 (Du145) [µM],IC50 (XPA-1) [µM],IC50 (HEK-293) [µM],IC50 (Molt-4) [µM],IC50 (MDA-MB-415) [µM],IC50 (K562) [µM],IC50 (BxPc-3) [µM]
"O=C(Nc1cc(C(F)(F)F)cc(C(F)(F)F)c1)c1cc(-c2ccc(Cl)cc2)oc1C(F)(F)F [Compound 2, 5-(4-Chlorophenyl)-N-(3,5-bistrifluoromethylphenyl)-2-trifluoromethylfuran-3-carboxamide]",5 to 10,5 to 10,–,–,–,–,–,–,–,–,–,–,–
"O=C(Nc1cc(C(F)(F)F)cc(C(F)(F)F)c1)c1cc(-c2ccccc2)oc1C(F)(F)F [Compound 1, 5-Phenyl-2-trifluoromethyl-furan-3-carboxylic acid (3,5-bis-trifluoromethyl-phenyl)-amide]",5 to 10,> 20,< 5,< 5,< 5,< 5,5 to 10,5 to 10,< 5,< 5,< 5,< 5,5 to 10
